Assay results taken from the NIST ThermoML archive (doi:10.1016/j.tca.2018.08.015).
± gives the expanded uncertainty stated by the source.

Tests used:
[1] = for Glass transition temperature: DSC
[2] = Molar enthalpy of transition or fusion; details: Crystal; DSC
[3] = molar heat capacity at constant pressure; details: 101.33 kPa, DSC

c1ccc(-c2cccc(-c3ccccc3)c2)cc1 [m-terphenyl]
Details	Normal melting temperature [°C]	molar heat capacity at constant pressure [J/K/mol]
[1], Crystal, DTA	88 ± 0.5	–
[3], 212 K, Crystal	–	190.6 ± 9.5
[3], 212 K, Glass	–	193.8 ± 9.7
[3], 217 K, Glass	–	200 ± 10
[3], 222 K, Crystal	–	200.7 ± 10
[3], 222 K, Glass	–	206.2 ± 10
[3], 227 K, Glass	–	212.4 ± 11
[3], 232 K, Crystal	–	210.8 ± 10
[3], 232 K, Glass	–	218.6 ± 11
[3], 237 K, Glass	–	224.8 ± 11
[3], 242 K, Crystal	–	220.8 ± 11
[3], 252 K, Crystal	–	230.9 ± 12
[3], 262 K, Crystal	–	241 ± 12
[3], 272 K, Crystal	–	251.1 ± 13
[3], 280 K, Liquid	–	364.8 ± 18
[3], 282 K, Crystal	–	261.2 ± 13
[3], 290 K, Liquid	–	370.5 ± 18
[3], 292 K, Crystal	–	271.2 ± 14
[3], 300 K, Liquid	–	376.3 ± 19
[3], 302 K, Crystal	–	281.3 ± 14
[3], 310 K, Liquid	–	382.1 ± 19
[3], 312 K, Crystal	–	291.4 ± 15
[3], 318 K, Crystal	–	299.5 ± 15
[3], 320 K, Liquid	–	387.8 ± 19
[3], 322 K, Crystal	–	301.5 ± 15
[3], 323 K, Crystal	–	304.2 ± 15
[3], 328 K, Crystal	–	308.9 ± 15
[3], 330 K, Crystal	–	309.5 ± 16
[3], 330 K, Liquid	–	393.6 ± 20
[3], 333 K, Crystal	–	313.5 ± 16
[3], 338 K, Crystal	–	318.2 ± 16
[3], 340 K, Liquid	–	399.3 ± 20
[3], 343 K, Crystal	–	322.9 ± 16
[3], 348 K, Crystal	–	327.5 ± 16
[3], 350 K, Liquid	–	405.1 ± 20
[3], 360 K, Liquid	–	410.9 ± 20
[3], 370 K, Liquid	–	416.6 ± 21
[3], 378 K, Liquid	–	421.2 ± 21

Details	Glass transition temperature [°C]	Molar enthalpy of transition or fusion [kcal/mol]
[1]	-17 ± 1	–
[2]	–	5.69 ± 0.141

c1ccc(-c2ccccc2-c2ccccc2)cc1 [o-terphenyl]
Details	Glass transition temperature [°C]
[1]	-3 ± 1

[3]
Details	molar heat capacity at constant pressure [J/K/mol]
212 K, Glass	181.5 ± 9.1
217 K, Glass	187.8 ± 9.4
222 K, Glass	194 ± 9.7
227 K, Glass	200.3 ± 10
232 K, Glass	206.5 ± 10
237 K, Glass	212.8 ± 11
242 K, Glass	219 ± 11
280 K, Liquid	356.2 ± 18
290 K, Liquid	363.1 ± 18
300 K, Liquid	370 ± 18
310 K, Liquid	376.9 ± 19
320 K, Liquid	383.8 ± 19
330 K, Liquid	390.7 ± 20
340 K, Liquid	397.6 ± 20
350 K, Liquid	404.4 ± 20
